Assay [1] concerns multidrug-resistant P. falciparum line Dd2. The assay is described as follows: P. falciparum growth inhibition by 3H-hypoxanthine incorporation. The note with it: Plasmodium falciparum. The class given is cell-based. As for the experimental part: The ability of pyrazole derivatives according to the invention to kill P. falciparum parasites and/or to inhibit its proliferation is assayed through their ability to inhibit Plasmodium falciparum growth determined by 3H-hypoxanthine incorporation. The assay is derived from the method originally described by Desjardin et al., 1979, Antimicrob. Agents Chemother, 16: 710-718 which was modified. The method assesses parasite growth as reflected by incorporation of radiolabeled hypoxanthine by parasites. P. falciparum in culture are exposed to graded dilutions of test compounds for 48 h and incorporation of 3H-hypoxanthine over the last 24 h into parasite nucleic acids is determined by liquid scintillation spectroscopy. The specific method is described below: The test compounds are diluted by three-fold serial dilutions, in triplicate wells, using low hypoxanthine medium (LHM) RPMI (Roswell Park Memorial Institute medium), 1640, 0.5% Albumax, 0.2% sodium bicarbonate, 0.025M HEPES, 2 mM glutamine, 50 μg/ml Gentamicin, 2.5 μg/ml hypoxanthine, pH 7.35) in sterile flat-bottomed 96 well plates. Final volume in each well is 100 μl. Triplicate control wells contain 100 μl LHM without any inhibitor.
The mixed stage parasitized red blood cells (RBCs), containing greater than 50% ring stage parasites, are diluted to 1% parasitemia using uninfected RBCs, washed two times with LHM, and diluted to 3% hematocrit with LHM. 100 μl of diluted parasites is added to each well. Thus, the final hematocrit is 1.5% with 0.5% parasitemia at the beginning of the assay.
The plates comprising the test wells are placed in a humidified chamber, gassed with 5% CO2, 5% O2, 90% N2, and placed in a 36.5° C. incubator for 24 h. After 24 h incubation, 0.25 μCi of 3H-hypoxanthine in 20 μL LHM is added to each well. Plates are returned to the chamber, gassed, and incubated for an additional 24 h. At the end of the second 24 h incubation, plates are transferred to a −80° C. freezer and stored for a minimum of 2 h. then Plates are thawed and the lysed material is transferred to EasyTabC glass fiber filters (Perkin Elmer; PE) using a Packard Filtermate 196 Cell Harvester. Filters are dried, placed in an Omnifilter Cassette (Perkin Elmer), and 30 μl of Microscint-O-high efficiency liquid scintillation cocktail (PE) is added to each 3 well. The plates are sealed with a Top-Seal for 96 well microplates (Perkin Elmer) and counted using a Packard TopCount-1 microplate liquid scintillation counter. Results are tabulated and graphed using Prism GraphPad software to determine effective EC50 values (concentration at which 50% parasite growth inhibition occurs).

Assay [2] relates to Plasmodium falciparum Pf3D70087/N9. The assay is described as follows: in vivo therapeutic efficacy, 4-day-test in humanized mice. Also on record: species or system NOD-scidIL2Rγnull mice engrafted with human erythrocytes. The note with it: single oral dose per day for four consecutive days; for ED50: 50% inhibition of blood parasitemia by flow cytometry; for ED90: 90% inhibition of blood parasitemia by flow cytometry. As for the experimental part:
The ability of pyrazole derivatives according to the invention to show antimalarial efficacy in vivo can be tested by using the protocols described by Jimenez-Diaz et al., 2009, Antimicrob. Agents Chemother., 53:4533-4536. The therapeutic efficacy of compounds of invention against Plasmodium falciparum Pf3D70087/N9 growing in peripheral blood of NOD-scidIL2Rγnull mice engrafted with human erythrocytes. Efficacy is assessed by administering varying amounts of single oral doses of compounds per day for four consecutive days (4-day-test) and measuring their effect on blood parasitemia by flow cytometry. This assay provides effective doses of compounds capable of inhibiting 50% (ED50) and 90% (ED90) levels of parasitemia.

Assay [3] deals with field isolates of Plasmodium falciparum. The assay is described as follows: ex vivo parasite growth inhibition assay, field isolates of Plasmodium falciparum. The class given is cell-based. The note with it: P. falciparum field isolates (15 isolates), read-out: Median EC50. From the text: (§1) Compound 2 has also been tested against field isolates of Plasmodium falciparum (15 isolates) and Plasmodium vivax (15 isolates) using an ex vivo parasite growth inhibition assay as described in Marfurt et al., 2011, Antimicrob Agents Chemother., 55(3): 961.

Assay [4] relates to field isolates of Plasmodium vivax. The assay is described as follows: ex vivo parasite growth inhibition assay, field isolates of Plasmodium vivax. The settings on record: P. vivax field isolates (15 isolates), read-out: Median EC50. Type of assay: cell-based.
Text: as §1

[5] abbreviates: P. falciparum Dd2, 48 h exposure, 3H-hypoxanthine incorporation over last 24 h, read-out: EC50 (concentration at which 50% parasite growth inhibition occurs).
The mark [6] stands for this setting: DD2, read-out: EC50 (concentration at which 50% parasite growth inhibition occurs).

EC50, ED50 and ED90 data for nine molecules are collected here from US9464057B2, “Anti-malarial agents” (MMV MEDICINES FOR MALARIA VENTURE, priority 2013, dated 2016).

Where two headings read alike, the source gives them in different places.

In the case of `C[C@@H]1CC[C@H]2[C@@H](C)C(=O)O[C@@H]3O[C@@]4(C)CC[C@@H]1[C@]32OO4` [Artemisinin, reference compound], the EC50 in assay [1] (setting [5]) was determined as 12 nM.
Regarding `O=C1C(O)=C([C@H]2CC[C@H](c3ccc(Cl)cc3)CC2)C(=O)c2ccccc21` [Atovaquone, reference compound], the EC50 in assay [1] (setting [5]) stood at 1 nM.
`CCN(CC)CCCC(C)Nc1ccnc2cc(Cl)ccc12` (stereo not shown) [Chloroquine, reference compound] gave an ED50 in assay [2] of 4.3 mg/kg per day.
Turning to `CC(C)c1nc2ccccc2n1CC(=O)Nc1c(-c2ccc(Cl)cc2F)c(C(F)(F)F)nn1C` [Compound 1, N-(4-(4-chloro-2-fluorophenyl)-3-(trifluoromethyl)-1-methyl-1H-pyrazol-5-yl)-2-(2-isopropyl-1H-benzo[d]imidazol-1-yl)acetamide], in assay [1] (setting [6]), the EC50 worked out at 0.7 nM. Moreover, in assay [2], the ED50 amounted to 0.53 mg/kg per day and the ED90 is recorded as 0.94 mg/kg per day.
As to `Cc1nn(C)c(NC(=O)Cn2c(C(C)C)nc3ccccc32)c1-c1ccc(Cl)cc1F` [Compound 2, N-(4-(4-chloro-2-fluorophenyl)-1,3-dimethyl-M-pyrazol-5-yl)-2-(2-isopropyl-M-benzo[d]imidazol-1-yl)acetamide], the figures for the EC50 in assay [1] (setting [6]), in assay [3] and in assay [4] were 5.4 nM, 15 nM and 10 nM, respectively. In assay [2], the ED50 was found to be 1.7 mg/kg per day. In assay [2], this molecule displayed an ED90 of 2.5 mg/kg per day.
As to `Cn1nc(C(F)(F)F)c(-c2ccc(F)cc2)c1NC(=O)C[C@H](N)Cc1ccc(F)cc1` [Compound 3, (R)-3-amino-N-(3-(trifluoromethyl)-4-(4-fluorophenyl)-1-methyl-1H-pyrazol-5-yl)-4-(4-fluorophenyl)butanamide], the EC50 in assay [1] (setting [6]) is 0.2 nM. In assay [2], this molecule had an ED50 of 1.8 mg/kg per day and an ED90 of 3.0 mg/kg per day.
The like results for `Cc1nn(C)c(NC(=O)C[C@H](N)Cc2ccc(F)cc2)c1-c1ccc(F)cc1` [Compound 4, (R)-3-amino-4-(4-fluorophenyl)-N-(4-(4-fluorophenyl)-1,3-dimethyl-1H-pyrazol-5-yl) butanamide] were, in that order, 8 nM, 3.0 mg/kg per day and 4.1 mg/kg per day.
As for `COc1ccc(-c2c(C(F)(F)F)nn(C)c2NC(=O)Nc2ccc(F)cc2F)cc1` [Reference 1, reference compound], the EC50 in assay [1] (setting [5]) turned out to be 150 nM.
Consider `Cn1nc(C(F)(F)F)c(-c2ccc(Br)cc2)c1NC(=O)Cc1ccccc1F` [Reference 2, reference compound], for which the EC50 in assay [1] (setting [5]) worked out at 50 nM.
